Results taken from patent publication US20230212523A1, “CULTURE MEDIUM FOR LARYNGEAL CANCER EPITHELIAL CELLS, CULTURE METHOD, AND APPLICATION THEREOF” (CAS (Hefei) Institute of Technology Innovation, priority 2020, published 2023).

B1: fibroblast growth factor 7: growth factor from Sino Biological (protein, UniProt P21781 32-194, looked up)
Fibroblast growth factor 7: CNDMTPEQMATNVNCSSPERHTRSYDYMEGGDIRVRRLFCRTQWYLRIDKRGKVKGTQEMKNNYNIMEIRTVAVGIVAIKGVESEFYLAMNKEGKLYAKKECNEDCNFKELILENHYNTYASAKWTHNGGEMFVALNQKGIPVRGKKTKKEQKTAHFLPMAIT

test system: primary laryngeal cancer cells (No. 0S0064); assay: Effects of different factors added to basic medium BM on proliferation of primary laryngeal cancer cells (cell count); type: cell-based, human; settings: factor added to BM, in specific concentration ranges; 10 days of culture on irradiated NIH-3T3; FIGS. 1A-1F
Method: The cultured NIH-3T3 cells (purchased from ATCC, and cultured in DMEM culture solution containing 10% fetal bovine serum) were digested with 0.25% trypsin (purchased from Thermo Fisher), and the digestion was terminated by using DMEM culture solution (purchased from Corning) containing 5%(v/v) fetal bovine serum (purchased from ExCell Biotech Co., Ltd.), 100 U/mL penicillin and 100 μg/mL streptomycin; the resultant was collected into a 15 mL centrifuge tube and centrifuged at 1500 rpm for 4 minutes, and then the supernatant was discarded. The centrifuged cell sediments were resuspended in the above DMEM culture solution containing 10% fetal bovine serum and were counted with a flow imaging counter (JIMBIO FIL, Jiangsu Jimbio Technology Co., Ltd.). The cells were irradiated with γ-ray of 35 Gy irradiation dose, and then were inoculated in a culture vessel at a density of 2×10^4 cells/cm^2. The cells were incubated in a 37° C. incubator until the cells adhere to the wall. Before the inoculation of primary cells, the culture medium was removed from the culture vessel.
Preparation of basic medium (abbreviated as BM): BM was prepared by adding 0.2 vol. % of Primocin (purchased from Invivogen, with a concentration of 50 mg/mL) to the commercial DMEM/F-12 medium to provide a final concentration of 100 μg/mL.
Next, different kinds and concentrations of additive factors (Table 3) were added to the basic medium (BM), so as to prepare culture mediums for laryngeal cancer epithelial cells containing different additive components.
The culture mediums with different components were added at a volume of 500 μl/well to 48-well plates which were pre-laid with γ-ray irradiated NIH-3T3 cells. Laryngeal cancer cells (No. 0S0064) isolated from laryngeal cancer tissue according to the same method as described in Example 1 were inoculated at a cell count of 4×10^4cells/well in the above-mentioned 48-well culture plates which were pre-laid with γ-ray irradiated NIH-3T3 cells. After surface disinfection, the plates were placed in a 37° C., 5% CO2 incubator (purchased from Thermo Fisher), such that equal numbers of freshly isolated laryngeal cancer cells (No. 0S0064) were cultured under different medium formulations. The culture mediums were replaced and the trophoblastic cells were supplemented every 4 days. after the start of culture. After 10 days of culture, cell counts were performed. The basic medium (BM) without addition of any additive was used as the experimental control.
As shown in the figures, adding different concentrations of different factors according to Table 3 to BM would result in different effects on cell proliferation.

Molecule	effect on cell proliferation (ratio of cell number to that in basic medium BM)
CN1C(=O)C(c2c(F)cccc2F)N(C)c2nc(Nc3ccc(S(N)(=O)=O)cc3)ncc21 (stereo not drawn) [Compound 1, 4-((7-(2,6-difluorophenyl)-5,8-dimethyl-6-oxo-5,6,7,8-tetrahydropteridin-2-yl)amino)benzsulfamide]	certain promoting effects on cell proliferation
Cc1cccc(-c2nn(C(=S)Nc3ccccc3)cc2-c2ccnc3ccccc23)n1 [Compound A83-C1, A83-C1, reference compound]	certain promoting effects on cell proliferation
C[C@@H](N)[C@H]1CC[C@H](C(=O)Nc2ccncc2)CC1 [Compound Y27632, Y27632, reference compound]	certain promoting effects on cell proliferation
hepatocyte growth factor: growth factor from Sino Biological	certain promoting effects on cell proliferation
insulin-like growth factor 1: growth factor from Sino Biological	certain promoting effects on cell proliferation
B1	certain promoting effects on cell proliferation
